This is an account of results in patent publication US10196363B2, “Dihydropyrimidin-2-one compounds and medical use thereof” (JAPAN TOBACCO INC., priority 2014, dated 2019).

One assay has as its target T1, human RORγ (Homo sapiens, UniProt P51449).
T1 construct: human RORγ, from Ser253 to Lys518; expressed in transfected cells; host or cells: CHO cells (Chinese hamster ovary), transient co-transfection with pG5-Luc
T1 sequence (P51449 253-518): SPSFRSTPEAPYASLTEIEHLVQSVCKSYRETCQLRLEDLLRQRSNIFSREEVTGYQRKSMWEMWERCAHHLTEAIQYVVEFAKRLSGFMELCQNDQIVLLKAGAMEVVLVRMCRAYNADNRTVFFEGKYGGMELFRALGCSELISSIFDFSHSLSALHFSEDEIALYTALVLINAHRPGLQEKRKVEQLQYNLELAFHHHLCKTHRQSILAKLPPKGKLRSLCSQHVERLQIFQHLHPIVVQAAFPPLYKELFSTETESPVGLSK
In words: In vitro assay of inhibitory effect against RORγ transcriptional activity (GAL4-hRORγ LBD luciferase reporter gene assay in CHO cells). In kind it is cell-based. The note with it: for pEC50: GAL4-hRORγ LBD luciferase reporter, CHO cells, read-out: LUC EC50 hRORγ. The essentials:
(§1)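 In this reporter assay, compounds acted for 2 days on transfected CHO cells carrying GAL4-RORγ LBD (human or mouse) with pG5-Luc. Percent values refer to the 0.2% DMSO control.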

In another assay the target is T2, mouse RORγ (Mus musculus, UniProt P51450).
T2 construct: mouse RORγ, from Ile251 to Lys516; expressed in transfected cells; host or cells: CHO cells (Chinese hamster ovary), transient co-transfection with pG5-Luc
T2 sequence (P51450 251-516): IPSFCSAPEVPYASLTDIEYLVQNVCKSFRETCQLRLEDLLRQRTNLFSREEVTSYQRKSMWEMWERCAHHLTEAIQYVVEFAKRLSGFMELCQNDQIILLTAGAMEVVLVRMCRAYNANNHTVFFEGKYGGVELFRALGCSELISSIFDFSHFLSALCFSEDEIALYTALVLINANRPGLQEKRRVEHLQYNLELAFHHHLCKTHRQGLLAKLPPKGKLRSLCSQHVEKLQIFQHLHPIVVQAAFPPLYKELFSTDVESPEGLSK
The assay is described as follows: In vitro assay of inhibitory effect against RORγ transcriptional activity (GAL4-mRORγ LBD luciferase reporter gene assay in CHO cells). In kind it is cell-based. The note with it: for pEC50: GAL4-mRORγ LBD luciferase reporter, CHO cells, read-out: LUC EC50 mRORγ. The essentials:
as §1

Setting [1] is: value in parentheses beside the EC50 bound, vehicle-control 0.2% DMSO alone = 100%.

pEC50: −log10 of the molar value. Where a name gives a salt, the structure may show the parent alone.

Take `CC(C)(C)CCc1ccc([C@]2(C)NC(=O)N(c3ccc(C(=O)O)cc3)C=C2C2CC(F)(F)C2)cc1Cl` [Example 252]: the negative logarithm of the EC50 (pEC50) is 7.70 at human RORγ and 7.55 on mouse RORγ.
`CC(C)C1=CN(CCC(=O)O)C(=O)N[C@@]1(C)c1ccc(CCC(C)(C)C)cc1` [Example 253]: the pEC50 on human RORγ is 7.12; on mouse RORγ, 7.47.
Turning to `CC(C)C1=CN(CCC(=O)O)C(=O)N[C@@]1(C)c1ccc([C@H]2C[C@@H](C(C)C)C2)c(Cl)c1` [Example 258, 3-{(S)-4-[3-Chloro-4-(3-isopropyl-cyclobutyl)-phenyl]-5-isopropyl-4-methyl-2-oxo-3,4-dihydro-2H-pyrimidin-1-yl}-propionic Acid], the pEC50 on human RORγ is 7.66; on mouse RORγ it was 7.80.
The like results for `CC(C)C1=CN(C(C)(C)CC(=O)O)C(=O)N[C@@]1(C)c1ccc(CCC(C)(C)C)c(Cl)c1` [Example 259] were, in that order, 7.24 and 7.37.
The like results for `CC(C)C1=CN(CCC(=O)O)C(=O)N[C@@]1(C)c1ccc(CCC(C)(C)CO)c(Cl)c1` [Example 260] were, in that order, 6.36 and 6.31.
`CC(C)C1=CN(CCC(=O)O)C(=O)N[C@@]1(C)c1ccc(CCC(C)(C)C(=O)O)c(Cl)c1` [Example 261]: the pEC50 on human RORγ and at mouse RORγ was < 4.70 throughout. The “hRORγ luciferase activity, %-of-control” value on human RORγ (setting [1]) is recorded as “(90%)”. For the same molecule, the “mRORγ luciferase activity, %-of-control” value on mouse RORγ (setting [1]) was “(100%)”.
On to `CC(C)C1=CN([C@H]2CC[C@H](CC(=O)O)CC2)C(=O)N[C@@]1(C)c1ccc(CCC(C)(C)C)c(Cl)c1` [Example 262], for which the pEC50 on human RORγ and at mouse RORγ was 7.66 throughout.
As to `CC(C)C1=CN(CCC(=O)O)C(=O)N[C@@]1(C)c1ccc(CC2CCCC2)c(Cl)c1` [Example 263], the pEC50 is 7.59 on human RORγ and 7.74 at mouse RORγ.
The like results for `CC(C)(C)CCc1ccc([C@]2(C)NC(=O)N(CCC(=O)O)C=C2c2ccccc2)cc1Cl` [Example 265] were, in that order, 7.43 and 7.15.
For `Cc1cc(N2C=C(C(C)C)[C@](C)(c3ccc(CCC(C)(C)C)c(Cl)c3)NC2=O)ccc1C(=O)O` [Example 266], the pEC50 at human RORγ is 7.92; on mouse RORγ, 7.77.
Regarding `CC(C)C1=CN(CCC(=O)O)C(=O)N[C@@]1(C)c1ccc(C=C2CCCCC2)c(Cl)c1` [Example 267], the pEC50 on human RORγ was 7.52; on mouse RORγ, 7.48.
`CC(C)C1=CN(CCC(=O)O)C(=O)N[C@@]1(C)c1ccc(CC2CCCCC2)c(Cl)c1` [Example 268]: the pEC50 was 7.82 at human RORγ and 7.85 on mouse RORγ.
The like results for `CC(C)C1=CN(C23CCC(C(=O)O)(CC2)C3)C(=O)N[C@@]1(C)c1ccc(CCC(C)(C)C)c(Cl)c1` [Example 269] were, in that order, 7.72 and 7.64.
In the case of `CC(C)C1=CN(CCC(=O)O)C(=O)N[C@@]1(C)c1ccc(CCC(C)(C)C)c(C(F)(F)F)c1` [Example 270], the pEC50 on human RORγ is 7.28; at mouse RORγ, 7.59.
As to `CC(C)C1=CN(c2ccc(C(=O)O)cc2)C(=O)N[C@@]1(C)c1ccc(CCC(C)(C)C)c(C(F)(F)F)c1` [Example 271, 4-{(S)-4-[4-(3,3-Dimethyl-butyl)-3-trifluoromethyl-phenyl]-5-isopropyl-4-methyl-2-oxo-3,4-dihydro-2H-pyrimidin-1-yl}-benzoic Acid], the negative logarithm of the EC50 (pEC50) was 7.37 at human RORγ and 7.33 at mouse RORγ.
The like results for `CC(C)C1=CN(C23CCC(C(=O)O)(C2)C3)C(=O)N[C@@]1(C)c1ccc(CCC(C)(C)C)c(Cl)c1` [Example 272] were, in that order, 7.77 and 7.44.
The like results for `COCCN1C=C(c2cccc(C(=O)O)c2)[C@](C)(c2ccc(CCC(C)(C)C)c(Cl)c2)NC1=O` [Example 273] were, in that order, 7.60 and 7.12.
As for `COCCC1=CN(C23CCC(C(=O)O)(C2)C3)C(=O)N[C@@]1(C)c1ccc(CCC(C)(C)C)c(Cl)c1` [Example 274], the negative-log EC50 (pEC50) at human RORγ and on mouse RORγ was 8.10 in each case.
Turning to `COCCN1C=C(c2cncc(C(=O)O)c2)[C@](C)(c2ccc(CCC(C)(C)C)c(Cl)c2)NC1=O` [Example 275], the values for the pEC50 on human RORγ and at mouse RORγ were 6.27 and 5.92, respectively.
As for `CC(C)C1=CN(c2ccc(C(=O)O)cn2)C(=O)N[C@@]1(C)c1ccc(CCC(C)(C)C)c(Cl)c1` [Example 281, 6-{(S)-4-[3-Chloro-4-(3,3-dimethyl-butyl)-phenyl]-5-isopropyl-4-methyl-2-oxo-3,4-dihydro-2H-pyrimidin-1-yl}-nicotinic Acid hydrochloride], the pEC50 at human RORγ is 7.85; at mouse RORγ, 7.68.
The like results for `CC(C)C1=CN(CCC(=O)O)C(=O)N[C@@]1(C)c1ccc(CC2CC(F)(F)C2)c(Cl)c1` [Example 282] were, in that order, 6.42 and 6.73.
For the molecule `CC(C)C1=CN(c2ccc(C(=O)O)c(C(F)(F)F)c2)C(=O)N[C@@]1(C)c1ccc(CCC(C)(C)C)c(Cl)c1` [Example 283], the negative-log EC50 (pEC50) at human RORγ is 7.74; on mouse RORγ, 7.55.
Regarding `CC(C)(C)CCc1ccc([C@]2(C)NC(=O)N(CCC(=O)O)C=C2C2CC(C)(C)OC(C)(C)C2)cc1Cl` [Example 284], the pEC50 is 5.56 on human RORγ and 5.82 on mouse RORγ.
The like results for `CC(C)C1=CN(CCC(=O)O)C(=O)N[C@@]1(C)c1ccc(C=C2CCC(C)(C)CC2)c(Cl)c1` [Example 285] were, in that order, 5.87 and 7.52.
Turning to `CC(C)C1=CN(CCC(=O)O)C(=O)N[C@@]1(C)c1ccc(CC2CCC(C)(C)CC2)c(Cl)c1` [Example 286], the figures for the pEC50 at human RORγ and at mouse RORγ were 6.57 and 7.42, respectively.
Consider `CC(C)C1=CN(CCC(=O)O)C(=O)N[C@@]1(C)c1ccc(C=C2CCC2)c(Cl)c1` [Example 288], for which the negative logarithm of the EC50 (pEC50) at human RORγ was 5.83; at mouse RORγ it was 6.04.
Consider `CC(C)C1=CN(CCC(=O)O)C(=O)N[C@@]1(C)c1ccc(C=C2CCOCC2)c(Cl)c1` [Example 289], for which the pEC50 on human RORγ was 5.95; on mouse RORγ, 6.11.
Consider `CC(C)C1=CN(CCC(=O)O)C(=O)N[C@@]1(C)c1ccc(CC2CCOCC2)c(Cl)c1` [Example 290], for which the negative logarithm of the EC50 (pEC50) at human RORγ is 6.33; on mouse RORγ it was 6.59.
As to `CC(C)C1=CN(CCC(=O)O)C(=O)N[C@@]1(C)c1ccc(CC2CCC2)c(Cl)c1` [Example 291], the negative-log EC50 (pEC50) on human RORγ was 5.96; on mouse RORγ, 6.86.
Turning to `C=C(C)C1=CN(CCC(=O)O)C(=O)N[C@@]1(C)c1ccc(CCC(C)(C)C)c(Cl)c1` [Example 292], the pEC50 on human RORγ was 7.05; on mouse RORγ, 7.14.
Take `CC(C)C1=CN(CCC(=O)O)C(=O)N[C@@]1(C)c1ccc(CCC(C)(C)O)c(Cl)c1` [Example 293]: the pEC50 at human RORγ is 5.96; on mouse RORγ it was 5.99.
The like results for `CC(C)C1=CN(CCC(=O)O)C(=O)N[C@@]1(C)c1ccc(CCC(C)(C)F)c(Cl)c1` [Example 294] were, in that order, 7.17 and 7.47.
On to `CC(C)C1=CN(c2cc(C(=O)O)on2)C(=O)N[C@@]1(C)c1ccc(CCC(C)(C)C)c(Cl)c1` [Example 295], for which the pEC50 is 6.87 on human RORγ and 6.44 at mouse RORγ.
The like results for `COCCN1C=C(c2cnn(C(C)(C)C(=O)O)c2)[C@](C)(c2ccc(CCC(C)(C)C)c(Cl)c2)NC1=O` [Example 296] were, in that order, 5.43 and 5.34.
